Measured values taken from US12319664B2, “Herbicidally active 3-phenylisoxazoline-5-carboxamides of cyclopentenylcarboxylic acid derivatives” (Bayer Aktiengesellschaft, priority 2018, dated 2025).

How the values were obtained:
ALOMY = test: Post-emergence herbicidal action against ALOMY; format: in vivo, Alopecurus myosuroides; settings: application rate 80 g/ha, rated visually after about 3 weeks
Outline: (§1)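 Activity was scored by eye roughly 3 weeks post-treatment relative to untreated plants, on a scale where 0% equals control and 100% equals dead plants. Treatment: spray onto green parts at one-leaf stage (2–3 weeks from sowing, sandy loam, greenhouse), WP/EC formulations with 0.5% additive, 600 l/ha water.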

AVEFA = test: Post-emergence herbicidal action against AVEFA; format: in vivo, Avena fatua; settings: application rate 80 g/ha, rated visually after about 3 weeks
Outline: as §1

ECHCG = test: Post-emergence herbicidal action against ECHCG; format: in vivo, Echinochloa crus-galli; settings: application rate 80 g/ha, rated visually after about 3 weeks
Outline: as §1

LOLRI = test: Post-emergence herbicidal action against LOLRI; format: in vivo, Lolium rigidum; settings: application rate 80 g/ha, rated visually after about 3 weeks
Outline: as §1

SETVI = test: Post-emergence herbicidal action against SETVI; format: in vivo, Setaria viridis; settings: application rate 80 g/ha, rated visually after about 3 weeks
Outline: as §1

ABUTH = test: Post-emergence herbicidal action against ABUTH; format: in vivo, Abutilon theophrasti; settings: application rate 80 g/ha, rated visually about 3 weeks after treatment
Outline: as §1

AMARE = test: Post-emergence herbicidal action against AMARE; format: in vivo, Amaranthus retroflexus; settings: application rate 80 g/ha, rated visually about 3 weeks after treatment
Outline: as §1

MATIN = test: Post-emergence herbicidal action against MATIN; format: in vivo, Matricaria inodora; settings: application rate 80 g/ha, rated visually about 3 weeks after treatment
Description: [table] 2. Post-emergence herbicidal action against harmful plants and crop plant compatibility Seeds of monocotyledonous and dicotyledonous weeds and crop plants are placed in sandy loam in plastic or wood-fibre pots, covered with soil and cultivated in a greenhouse under controlled growth conditions. 2 to 3 weeks after sowing, the test plants are treated at the one-leaf stage. The compounds of the invention, formulated in the form of wettable powders (WP) or as emulsion concentrates (EC), are then sprayed onto the green parts of the plants as aqueous suspension or emulsion with addition of 0.5% additive at a water application rate of 600 l/ha (converted). After the test plants have been kept in the greenhouse under optimum growth conditions for about 3 weeks, the activity of the preparations is rated visually in comparison to untreated controls. For example, 100% activity=the plants have died, 0% activity=like control plants.

STEME = test: Post-emergence herbicidal action against STEME; format: in vivo, Stellaria media; settings: application rate 80 g/ha, rated visually about 3 weeks after treatment
Outline: as §1

VIOTR = test: Post-emergence herbicidal action against VIOTR; format: in vivo, Viola tricolor; settings: application rate 80 g/ha, rated visually about 3 weeks after treatment
Outline: as §1

VERPE = test: Post-emergence herbicidal action against VERPE; format: in vivo, Veronica persica; settings: application rate 80 g/ha
Outline: as §1

HORMU = test: Post-emergence herbicidal action against HORMU; format: in vivo, Hordeum murinum; settings: application rate 80 g/ha
Outline: as §1

POLCO = test: Post-emergence herbicidal action against POLCO; format: in vivo, Polygonum convolvulus; settings: application rate 80 g/ha, rated visually about 3 weeks after treatment
Outline: as §1

PHBPU = test: Post-emergence herbicidal action against PHBPU; format: in vivo, Pharbitis purpurea; settings: application rate 80 g/ha, rated visually about 3 weeks after treatment
Outline: as §1

COC(=O)[C@@H]1C=C[C@H](NC(=O)C2(C(F)(F)F)CC(c3cc(C)cc(Cl)c3)=NO2)C1 (some centres unmarked) [Example I-027]
90%: Herbicidal action against [%] ALOMY (ALOMY) | Herbicidal action against [%] AVEFA (AVEFA) | Herbicidal action against [%] LOLRI (LOLRI) | Herbicidal action against [%] SETVI (SETVI) | Herbicidal action against [%] MATIN (MATIN)
80%: Herbicidal action against [%] ECHCG (ECHCG) | Herbicidal action against [%] ABUTH (ABUTH) | Herbicidal action against [%] AMARE (AMARE) | Herbicidal action against [%] STEME (STEME) | Herbicidal action against [%] VIOTR (VIOTR) | Herbicidal action against [%] VERPE (VERPE) | Herbicidal action against [%] HORMU (HORMU)

C=CC1(C(=O)NC2C=CC(C(=O)NS(=O)(=O)CCC)C2)CC(c2cc(F)cc(F)c2)=NO1 (mixture of isomers) [II-14]
90%: Herbicidal action against [%] SETVI (SETVI) | Herbicidal action against [%] AMARE (AMARE) | Herbicidal action against [%] MATIN (MATIN) | Herbicidal action against [%] POLCO (POLCO) | Herbicidal action against [%] VIOTR (VIOTR) | Herbicidal action against [%] VERPE (VERPE) | Herbicidal action against [%] HORMU (HORMU)
100%: Herbicidal action against [%] ALOMY (ALOMY) | Herbicidal action against [%] AVEFA (AVEFA) | Herbicidal action against [%] ECHCG (ECHCG) | Herbicidal action against [%] LOLRI (LOLRI)

CCOC(=O)C1C=CC(NC(=O)C2(C)CC(c3cc(F)cc(F)c3)=NO2)C1 (mixture of isomers) [Example I-059]
90%: Herbicidal action against [%] ALOMY (ALOMY) | Herbicidal action against [%] SETVI (SETVI) | Herbicidal action against [%] MATIN (MATIN) | Herbicidal action against [%] STEME (STEME) | Herbicidal action against [%] HORMU (HORMU)
80%: Herbicidal action against [%] AMARE (AMARE) | Herbicidal action against [%] PHBPU (PHBPU) | Herbicidal action against [%] POLCO (POLCO) | Herbicidal action against [%] VERPE (VERPE)
100%: Herbicidal action against [%] AVEFA (AVEFA) | Herbicidal action against [%] ECHCG (ECHCG) | Herbicidal action against [%] LOLRI (LOLRI)

COC(=O)C1C=CC(NC(=O)C2(C(F)(F)F)CC(c3cc(C)cc(C(F)(F)F)c3)=NO2)C1 (mixture of isomers) [Example I-048]
80%: Herbicidal action against [%] ECHCG (ECHCG) | Herbicidal action against [%] LOLRI (LOLRI) | Herbicidal action against [%] ABUTH (ABUTH) | Herbicidal action against [%] MATIN (MATIN) | Herbicidal action against [%] PHBPU (PHBPU) | Herbicidal action against [%] VERPE (VERPE)
90%: Herbicidal action against [%] AVEFA (AVEFA) | Herbicidal action against [%] STEME (STEME) | Herbicidal action against [%] HORMU (HORMU)
100%: Herbicidal action against [%] ALOMY (ALOMY)

Cc1cc(F)cc(C2=NOC(C(=O)N[C@H]3C=C[C@@H](C(=O)OCCCl)C3)(C(F)(F)F)C2)c1 (some centres unmarked) [Example I-031]
100%: Herbicidal action against [%] LOLRI (LOLRI)
90%: Herbicidal action against [%] ALOMY (ALOMY) | Herbicidal action against [%] AVEFA (AVEFA) | Herbicidal action against [%] SETVI (SETVI) | Herbicidal action against [%] AMARE (AMARE) | Herbicidal action against [%] POLCO (POLCO) | Herbicidal action against [%] HORMU (HORMU)
80%: Herbicidal action against [%] ECHCG (ECHCG) | Herbicidal action against [%] MATIN (MATIN) | Herbicidal action against [%] PHBPU (PHBPU) | Herbicidal action against [%] VERPE (VERPE)

Cc1cc(F)cc(C2=NOC(C(=O)NC3C=CC(C(=O)OCC(F)(F)F)C3)(C(F)(F)F)C2)c1 (mixture of isomers) [Example I-032]
100%: Herbicidal action against [%] AVEFA (AVEFA) | Herbicidal action against [%] POLCO (POLCO)
80%: Herbicidal action against [%] MATIN (MATIN) | Herbicidal action against [%] VIOTR (VIOTR) | Herbicidal action against [%] VERPE (VERPE) | Herbicidal action against [%] HORMU (HORMU)
90%: Herbicidal action against [%] ALOMY (ALOMY) | Herbicidal action against [%] LOLRI (LOLRI) | Herbicidal action against [%] SETVI (SETVI) | Herbicidal action against [%] AMARE (AMARE)

CCOC(=O)C1C=CC(NC(=O)C2(C(F)(F)F)CC(c3cc(C)cc(C(F)(F)F)c3)=NO2)C1 (mixture of isomers) [Example I-036]
80%: Herbicidal action against [%] AVEFA (AVEFA) | Herbicidal action against [%] ABUTH (ABUTH) | Herbicidal action against [%] AMARE (AMARE) | Herbicidal action against [%] MATIN (MATIN) | Herbicidal action against [%] VERPE (VERPE) | Herbicidal action against [%] HORMU (HORMU)
90%: Herbicidal action against [%] ALOMY (ALOMY) | Herbicidal action against [%] LOLRI (LOLRI) | Herbicidal action against [%] POLCO (POLCO) | Herbicidal action against [%] VIOTR (VIOTR)

C=CC1(C(=O)NC2C=CC(C(=O)OCc3ccccc3)C2)CC(c2cc(F)cc(F)c2)=NO1 (mixture of isomers) [Example I-033]
80%: Herbicidal action against [%] ABUTH (ABUTH) | Herbicidal action against [%] PHBPU (PHBPU) | Herbicidal action against [%] STEME (STEME) | Herbicidal action against [%] VERPE (VERPE) | Herbicidal action against [%] HORMU (HORMU)
90%: Herbicidal action against [%] ALOMY (ALOMY) | Herbicidal action against [%] AVEFA (AVEFA) | Herbicidal action against [%] ECHCG (ECHCG) | Herbicidal action against [%] LOLRI (LOLRI) | Herbicidal action against [%] SETVI (SETVI) | Herbicidal action against [%] AMARE (AMARE) | Herbicidal action against [%] MATIN (MATIN)
100%: Herbicidal action against [%] POLCO (POLCO)

CCOC(=O)C1C=CC(NC(=O)C2(C(F)(F)F)CC(c3cc(C)cc(C)c3)=NO2)C1 (mixture of isomers) [Example I-053]
80%: Herbicidal action against [%] MATIN (MATIN) | Herbicidal action against [%] PHBPU (PHBPU) | Herbicidal action against [%] VERPE (VERPE)
90%: Herbicidal action against [%] ALOMY (ALOMY) | Herbicidal action against [%] AVEFA (AVEFA) | Herbicidal action against [%] LOLRI (LOLRI) | Herbicidal action against [%] STEME (STEME)

CC1(C(=O)N[C@H]2C=C[C@@H](C(=O)OCCCl)C2)CC(c2cc(F)cc(F)c2)=NO1 (some centres unmarked) [Example I-009]
90%: Herbicidal action against [%] ALOMY (ALOMY) | Herbicidal action against [%] AVEFA (AVEFA) | Herbicidal action against [%] ECHCG (ECHCG) | Herbicidal action against [%] LOLRI (LOLRI) | Herbicidal action against [%] SETVI (SETVI) | Herbicidal action against [%] ABUTH (ABUTH) | Herbicidal action against [%] MATIN (MATIN) | Herbicidal action against [%] PHBPU (PHBPU) | Herbicidal action against [%] POLCO (POLCO) | Herbicidal action against [%] STEME (STEME) | Herbicidal action against [%] VERPE (VERPE) | Herbicidal action against [%] HORMU (HORMU)

COC(=O)C1C=CC(NC(=O)C2(C(F)(F)F)CC(c3cc(Cl)cc(Cl)c3)=NO2)C1 (mixture of isomers) [Example I-039]
80%: Herbicidal action against [%] SETVI (SETVI) | Herbicidal action against [%] ABUTH (ABUTH) | Herbicidal action against [%] AMARE (AMARE) | Herbicidal action against [%] MATIN (MATIN) | Herbicidal action against [%] PHBPU (PHBPU) | Herbicidal action against [%] VERPE (VERPE) | Herbicidal action against [%] HORMU (HORMU)
100%: Herbicidal action against [%] ALOMY (ALOMY) | Herbicidal action against [%] LOLRI (LOLRI)
90%: Herbicidal action against [%] AVEFA (AVEFA) | Herbicidal action against [%] ECHCG (ECHCG) | Herbicidal action against [%] STEME (STEME)

CC1(C(=O)N[C@H]2C=C[C@@H](C(=O)OCc3ccccc3)C2)CC(c2cc(F)cc(F)c2)=NO1 (some centres unmarked) [Example I-008]
90%: Herbicidal action against [%] AVEFA (AVEFA) | Herbicidal action against [%] ECHCG (ECHCG) | Herbicidal action against [%] LOLRI (LOLRI) | Herbicidal action against [%] SETVI (SETVI) | Herbicidal action against [%] ABUTH (ABUTH) | Herbicidal action against [%] AMARE (AMARE) | Herbicidal action against [%] MATIN (MATIN) | Herbicidal action against [%] PHBPU (PHBPU) | Herbicidal action against [%] POLCO (POLCO) | Herbicidal action against [%] STEME (STEME) | Herbicidal action against [%] VERPE (VERPE) | Herbicidal action against [%] HORMU (HORMU)
100%: Herbicidal action against [%] ALOMY (ALOMY)

COC(=O)C1C=CC(NC(=O)C2(C(F)(F)F)CC(c3cccc(Cl)c3)=NO2)C1 (mixture of isomers) [Example I-046]
100%: Herbicidal action against [%] LOLRI (LOLRI) | Herbicidal action against [%] HORMU (HORMU)
90%: Herbicidal action against [%] ALOMY (ALOMY) | Herbicidal action against [%] AVEFA (AVEFA) | Herbicidal action against [%] ECHCG (ECHCG) | Herbicidal action against [%] ABUTH (ABUTH) | Herbicidal action against [%] STEME (STEME)
80%: Herbicidal action against [%] SETVI (SETVI) | Herbicidal action against [%] AMARE (AMARE) | Herbicidal action against [%] MATIN (MATIN) | Herbicidal action against [%] VERPE (VERPE)

C=CC1(C(=O)N[C@H]2C=C[C@@H](C(=O)OCCOC)C2)CC(c2cc(F)cc(F)c2)=NO1 (some centres unmarked) [Example I-018]
100%: Herbicidal action against [%] ALOMY (ALOMY) | Herbicidal action against [%] AVEFA (AVEFA) | Herbicidal action against [%] ECHCG (ECHCG) | Herbicidal action against [%] LOLRI (LOLRI) | Herbicidal action against [%] POLCO (POLCO)
90%: Herbicidal action against [%] SETVI (SETVI) | Herbicidal action against [%] ABUTH (ABUTH) | Herbicidal action against [%] AMARE (AMARE) | Herbicidal action against [%] VERPE (VERPE) | Herbicidal action against [%] HORMU (HORMU)
80%: Herbicidal action against [%] MATIN (MATIN)
